Like-named read-outs stand apart in the source and are kept apart here. A value given as a limit tells only on which side of the number the result lay.

Results on five molecules are retold here after patent publication EP0507188A1, “Substituted 2',3'-dideoxy-5-trifluoromethyluridines, method of their preparation and their use in medicaments” (BAYER AG, priority 1991, dated 1992).

The test system of data set [1] is Hepatitis B Virus (HBV). Nature of the data set: HBV test system in HBV-DNA-transfected hepatoma cells (HEP G2.2.15): HBV DNA in supernatant, HBsAg ELISA. In kind it is cell-based. The note with it: read-out: IC₅₀. From the text:
Es wurde überraschend gefunden, daß die erfindungsgemäßen Verbindungen der allgemeinen Formel (I) eine außerordentlich starke spezifische Wirkung gegen das Heptatitis B Virus (HBV) besitzen. Der Nachweis wurde in mit Hepatitis B Virus DNA transfizierten Hepatomzellen (HEP G2.2.15) geführt.
Die Ergebnisse der unten aufgeführten Beispiele wurden zu dem in der folgenden Literaturangabe [Sells, M.A.; Chen, M.L., Acs, G., Proc. Natl. Acad. Sci. USA S. 1005 - 1009, Vol. 84 (1987)] beschriebenen HBV Testsystem ermittelt: Transfizierte Hepatomzellen (HEP G2.2.15) wurden mit verschiedenen Konzentrationen an der jeweiligen Verbindung inkubiert. Durch Behandlung der transfizierten Hepatomzellinie HEP G2.2.15 mit den erfindungsgemäßen Verbindungen konnte das […] der virusspezifischen HBV DNA im Überstand sowie eine Reduktion des HBsAg Spiegels gezeigt werden. Es wurde weiter gefunden, daß die erfindungsgemäßen Verbindungen zu einer Reduktion der replikativen Intermediate der Hepatitisviren führen. Im Überstand der Zellkulturen wurde nach PEG Fällung der Gehalt an HBV DNA bestimmt. Dies geschah unter Verwendung einer nicht radioaktiv markierten HBV genomischen DNA Probe [Pauly, P., 1982, P.H.D. Thesis, University of Göttingen, F.R.G.; Köchel et al., 1990, EMBL, Accession-Nr. X 51790]. Gleichzeitig erfolgte der Nachweis der Beeinflussung der HBsAg Bildung mittels eines kommerziell erhältlichen Elisa Tests. Die angegebenen IC₅₀-Werte beziehen sich auf die Substratkonzentrationen, die unter den oben aufgeführten Testbedingungen eine 50%ige Hemmung der HBV DNA Konzentration im Überstand bewirken.

Data set [2] relates to MEF-Zellen. Kind of data set: Effect on vitality of other cells by incubation (MEF). In kind it is cell-based. The note with it: no influence on vitality up to this concentration. Here is the method: (§1) Die Wirkung des Beispiels 2 auf andere Zellen wurde durch Inkubation von HEL-, MEF-Zellen getestet. Es zeigte sich keine Beeinflussung der Vitalität dieser Zellen bis zu einer Konzentration von 250 µM.

The test system of data set [3] is HEL-Zellen. Nature of the data set: Effect on vitality of other cells by incubation (HEL). Type of data set: cell-based. The note with it: no influence on vitality up to this concentration. Here is the method:
as §1

A short description of data set [4]: Water solubility (qualitative remark on the lyophilisate). Type of data set: physicochemical. The note with it: lyophilisate of the sodium salt.
Where [5] appears, read: HEP G2.2.15 cells, concentration giving 50% inhibition of HBV DNA concentration in supernatant.

Turning to `O=c1[nH]c(=O)n([C@H]2CC[C@@H](CO)O2)cc1C(F)(F)F` [Beispiel 2, β-2',3'-Didesoxy-5-(trifluormethyl)-uridin], in data set [1] (setting [5]), the IC50 was determined as 0.01 nM. Further, the “Beeinflussung der Vitalität dieser Zellen” value in data set [2] and in data set [3] was greater than 250 µM in each case.
Take `O=c1[nH]c(=O)n([C@H]2CC[C@@H](CO)O2)cc1C(F)(F)F.[Na]` [Beispiel 12, β-2',3'-Didesoxy-5-(trifluormethyl)-uridin-natriumsalz]: the Wasserlöslichkeit result in data set [4] is “gut wasserlösliches”.
Take `Nc1ncnc2c1ncn2[C@H]1CC[C@@H](CO)O1` [DDA, reference compound]: in data set [1] (reference substances in the same test system (HEP G2.2.15, HBV DNA in supernatant)), the IC50 is greater than 100000 nM.
As for `Nc1ccn([C@H]2CC[C@@H](CO)O2)c(=O)n1` [DDC, 2',3'-Didesoxy-cytidin, reference compound], the IC50 in data set [1] (Hepatitis B virus, HepG2.2.15, reference substances in the same test system (HEP G2.2.15, HBV DNA in supernatant)) was 5000 nM.
On to “β-5'-(1-Ethoxycarbonyloxy-eth-1-yl)-2',3'-didesoxy-5-(trifluormethyl)-uridin [Beispiel 5]”, for which the IC50 in data set [1] (setting [5]) is greater than 0.25 nM.
